Source: publication PMC11741150, “Synthesis and In Vitro Antileishmanial Efficacy of Novel Ethylene Glycol Analogues of Benzothiadiazine‐1,1‐dioxide” (Chemistry & Biodiversity, 2024)
“Also recorded” adds a separate entry of the source. Like-named read-outs stand apart in the source and are kept apart here.

Legend:
[1] = system: Vero cells; assay: Cytotoxicity resazurin assay; type: cell-based; conditions: Chlorocebus sabaeus, 48 hours, ±standard deviation, maximum concentration 2 mM
Procedure: The cytotoxicity of the synthesised compounds was evaluated using the resazurin assay. The assay involves live cells converting oxidized blue resazurin dye to pink, highly fluorescent resorufin through irreversible enzymatic reduction.[44] This non‐toxic reagent is a useful instrument for determining drug toxicity and cell growth.
Dulbecco's modified Eagle's medium (DMEM) with high glucose (Separations) supplemented with 1 % L‐glutamine, non‐essential amino acids, and penicillin‐streptomycin (Sigma Aldrich), and 10 % fetal bovine serum (Thermofisher Scientific) was used to cultivate Vero cells. The cells were kept at 37 °C and 5 % CO2 in a humidified environment. For the assay, 96 well plates were prepared by pipetting 100 μL of cell suspension (60 000 cells/mL) per well and incubating the plates for 24 hours. The cells were then treated with seven two‐fold concentration dilutions of: (1) 1 μM emetine dihydrochloride (Sigma Aldrich) solution (positive control); (2) 2 mM experimental compound solutions. Cell‐free growth medium was included as a blank. The treated plates were incubated for 48 hours.
To initiate the resazurin assay, 50 μL of sterile‐filtered resazurin sodium salt (Sigma Aldrich) solution (0.01 % in phosphate‐buffered saline (PBS)) was added to the prepared plates and then incubated for 2 hours. A Thermofisher Scientific's GO Multiscan plate reader was used to measure the absorbance at 570 and 600 nm. SkanIt 4.0 Research Edition software was used to perform the data analysis for every biological replicate. After subtracting background absorbance (600 nm) from the 570 nm absorbance data, the mean absorbance was computed, and the percentage of viable cells was estimated using the formula below: Cellviability%=(ΔAbssample-ΔAbsblank)/(ΔAbsnegcontrol-ΔAbsblank)X100
GraphPad Prism 5 was used to calculate the IC50 and Z‐score for each compound's biological replicate. The mean IC50 of the biological replicates and standard deviation (SD) was calculated to determine the final IC50 of each compound.

[2] = system: Leishmania donovani (strain 9515 (MHOM/IN/95/9515)) promastigotes; assay: Antipromastigote resazurin assay; type: cell-based; conditions: for IC50: promastigotes, maximum concentration 2 mM, ±standard deviation, read-out: L. donovani 9515 antipromastigote IC50; for inhibition at 10 µM: L. donovani strain 9515 promastigotes, read-out: Antipromastigote growth inhibition (%)
Procedure: The antipromastigote activity of synthesised compounds was evaluated using a modified method of the resazurin assay[45, 46] against two Leishmania strains.
Leishmania donovani (strain 9515 (MHOM/IN/95/9515)) and L. major (strain NIH S (MHOM/SN/74/Seidman)) promastigotes were cultured in M199 with Hank's salts and 0.68 mM L‐glutamine (Sigma Aldrich) supplemented with 0.0005 % hemin, 0.0001 % biotin, 0.1 mM adenine (Sigma Aldrich), 10 % fetal bovine serum, 50 U/mL Penicillin/Streptomycin solution, 4.2 mM sodium bicarbonate and 25 mM Hepes buffer. The promastigotes were maintained at an adjusted pH of 7.3–7.4 growth medium at 26 °C. […] Amphothericin B (10 μM) served as the standard antileishmanial drug and parasite‐free growth medium was included as the blank. The plates were incubated for 48 hours at 26 °C in humidified environment.
Following the initial incubation, 50 μL of resazurin solution (0.01 % in PBS) was added to each well and the plates underwent further incubation at 26 °C for 24 hours in the dark. A Thermofisher Scientific's GO Multiscan plate reader was used to measure absorbance at 570 nm and 600 nm. SkanIt 4.0 Research Edition software was used to perform the data analysis for every biological replicate. Background absorbance (600 nm) was subtracted from the 570 nm absorbance data and the mean absorbance was computed. The cell viability and data analysis were performed as indicated in the cytotoxicity assay.

[3] = system: L. major (strain NIH S (MHOM/SN/74/Seidman)) promastigotes; assay: Antipromastigote resazurin assay; type: cell-based, Leishmania major; conditions: for inhibition at 10 µM: L. major strain IR‐173 (as headed) promastigotes, read-out: Antipromastigote growth inhibition (%); for IC50: promastigotes, maximum concentration 2 mM, ±standard deviation
[4] = system: L. donovani strain 9515 intramacrophage amastigotes; assay: Intramacrophage antileishmanial growth inhibition assay; type: cell-based; conditions: Leishmania donovani, read-out: Anti‐amastigote growth inhibition (%)
Procedure: (§1) A modified resazurin assay[47, 48] and the two Leishmania strains were also used to assess the efficacy of synthesised compounds against intramacrophage parasites.
(§2) Human monocytic leukemia (THP‐1) cells were cultured in RPMI 1640 medium with L‐glutamine (Sigma Aldrich) supplemented with, 1 % penicillin/streptomycin solution (Lonza), 10 % fetal bovine serum (FBS; Thermofisher Scientific) and 2 g/L sodium bicarbonate (Sigma Aldrich). The cells were maintained in a humidified environment at 37 °C and 5 % CO2.
(§3) For the intramacrophage assay, a 500 000 cells/mL THP‐1 cell suspension was prepared, 25 ng/mL phorbol 12‐myristate 13‐acetate (PMA) added and the suspension seeded in 96 well plates (Nunc, Thermofisher Scientific) at 200 μL/well. Cell‐free growth medium was included as the blank. The plates were incubated for 48 hours in a humidified environment at 37 °C and 5 % CO2 to encourage the differentiation of the suspended cells to adherent macrophages.
(§4) To eliminate non‐adherent cells after the PMA treatment, the plates were carefully washed once with warm PBS. Then, a premade promastigote suspension ([…]) was added. The suspension consisted of stationary phase promastigotes in THP‐1 cell growth medium, with a multiplicity of infection (MOI) of 30 : 1. Parasite‐free medium was also added to selected THP‐1 cell‐containing wells to serve as parasite blank. The plates were thoroughly rinsed four times with warm PBS to get rid of extracellular parasites after being cultured for 24 hours to encourage macrophage infection. The cells were then treated with 160 μL of growth medium and 40 μL of either solvent (parasite blank and negative control with parasites) or 40 μL of compound solutions. For a dual‐point activity screening, 10 μM and 2 mM of compound were prepared in separate plates. Amphothericin B (10 μM) served as the standard antileishmanial drug. The plates were incubated for 72 hours in a humidified environment at 37 °C and 5 % CO2.
(§5) For the plates treated with 10 μM of compound, any serum and extracellular promastigotes that remained were carefully removed from the wells by rinsing with warm PBS. The wells were then treated with 20 μL of 0.05 % sodium dodecyl sulphate (SDS; Sigma Aldrich) in PBS for 30 sec to lyse the macrophages. Lysis was terminated with the addition of 180 μL promastigote growth medium with 10 % FBS. For the resazurin assay, 10 μL of resazurin solution (0.025 % in PBS) was added to each well and the plates were further incubated at 37 °C in for 72 hours in the dark to measure amastigote recovery to proliferative promastigotes.
(§6) A Thermofisher Scientific's GO Multiscan plate reader was used to measure absorbance at 570 nm and 600 nm. SkanIt 4.0 Research Edition software was used to perform the data analysis for every biological replicate. Background absorbance (600 nm) was subtracted from the 570 nm absorbance data and the mean absorbance was computed.
(§7) For the activity screening, the following formula was used to determine growth inhibition percentage: Growthinhibition%=100-[(ΔAbssample-ΔAbsblank)/(ΔAbsnegcontrol-ΔAbsblank)X100]

[5] = system: L. major intramacrophage amastigotes; assay: as above; type: cell-based, Leishmania major; conditions: for inhibition at 10 µM: Leishmania major, L. major strain IR‐173 (as headed) intramacrophage amastigotes, read-out: Anti‐amastigote growth inhibition (%); for host cell and parasite death in L. major anti‐amastigote screening: 2 mM of compound, L. major only
Procedure: as §1, §2, §3, §4, §5
Any remaining extracellular promastigotes were afterwards carefully removed from the wells by rinsing with warm PBS. The wells were then treated with 50 μL of resazurin solution (0.01 % in PBS) and the plates were further incubated at 37 °C for 4 hours in the dark to assess host cell viability.
as §6, §7

| IC50 ([2]; Leishmania donovani) | IC50 ([3]; Leishmania major) | IC50 [2] | IC50 [3] | SMILES | IC50 [1] | inhibition at 10 µM ([2]; Leishmania donovani) | inhibition at 10 µM ([3]; Leishmania major) | inhibition at 10 µM [4] | inhibition at 10 µM [5] | SI1: Selectivity index=IC50 Vero/L. donovani 9515 antipromastigote IC50 [2] | SI2: Selectivity index=IC50 Vero/L. major antipromastigote IC50 [3] | host cell and parasite death in L. major anti‐amastigote screening [5] |
| --- | --- | --- | --- | --- | --- | --- | --- | --- | --- | --- | --- | --- |
| 0.02 µM | – | – | – | C[C@@H]1[C@H](O)[C@@H](C)/C=C/C=C/C=C/C=C/C=C/C=C/C=C/[C@H](O[C@@H]2O[C@H](C)[C@@H](O)[C@H](N)[C@@H]2O)C[C@@H]2O[C@](O)(C[C@@H](O)C[C@@H](O)[C@H](O)CC[C@@H](O)C[C@@H](O)CC(=O)O[C@H]1C)C[C@H](O)[C@H]2C(=O)O [AmB, Amphotericin B, reference compound] | 57.8 ± 3.22 µM | 100% | 100% | 100% | 100% | – | – | – |
| 482 ± 7.57 µM | 701 ± 40.8 µM | – | – | COCCN1C=Nc2ccccc2S1(=O)=O [Compound 3, 2‐(2‐Methoxyethyl)‐2H‐benzo[e][1,2,4]thiadiazine‐1,1‐dioxide] | 502 ± 152 µM | 2% | 0% | 0% | 0% | – | – | – |
| 701.6 ± 4.17 µM | 919 ± 22.3 µM | – | – | COCCOCCN1C=Nc2ccccc2S1(=O)=O [Compound 4, 2‐[2‐(2‐Methoxyethoxy)ethyl]‐2H‐benzo[e][1,2,4]thiadiazine‐1,1‐dioxide] | 988 ± 10.6 µM | 0% | 0% | 0% | 0% | – | – | – |
| 830 ± 10.5 µM | – | – | – | COCCOCCOCCN1C=Nc2ccccc2S1(=O)=O [Compound 5, 2‐{2‐[2‐(2‐Methoxyethoxy)ethoxy]ethyl}‐2H‐benzo[e][1,2,4]thiadiazine‐1,1‐dioxide] | 999 ± 16.8 µM | 5% | 0% | 0% | 0% | 1.20 | 0.89 | both host cell and parasite death |
| 333 ± 45.1 µM | 586 ± 47 µM | – | – | CCOCCN1C=Nc2ccccc2S1(=O)=O [Compound 6, 2‐(2‐Ethoxyethyl)‐2H‐benzo[e][1,2,4]thiadiazine‐1,1‐dioxide] | 470 ± 225 µM | 2% | 0% | 0% | 0% | – | – | – |
| 426 ± 34.7 µM | 491 ± 28.6 µM | – | – | CCOCCOCCN1C=Nc2ccccc2S1(=O)=O [Compound 7, 2‐[2‐(2‐Ethoxyethoxy)ethyl]‐2H‐benzo[e][1,2,4]thiadiazine‐1,1‐dioxide] | 727 ± 61.7 µM | 0% | 0% | 0% | 0% | 1.71 | 1.48 | both host cell and parasite death; also recorded: killed both parasite and host cell |
| 809 ± 20.2 µM | 909 ± 124 µM | – | – | CCOCCOCCOCCN1C=Nc2ccccc2S1(=O)=O [Compound 8, 2‐{2‐[2‐(2‐Ethoxyethoxy)ethoxy]ethyl}‐2H‐benzo[e][1,2,4]thiadiazine‐1,1‐dioxide] | 922 ± 93.9 µM | 3% | 0% | 0% | 0% | – | – | – |
| 153 µM | 103 µM | 153 ± 7.92 µM | 104 ± 4.53 µM | O=S1(=O)c2ccccc2N=CN1CCOc1ccccc1 [Compound 9, 2‐(2‐Phenoxyethyl)‐2H‐benzo[e][1,2,4]thiadiazine‐1,1‐dioxide] | 975.3 ± 3.68 µM | 7% | 58% | 0% | 0% | 6.36 | 9.41 | both host cell and parasite death; also recorded: killed both parasite and host cell |
| 290 ± 21.4 µM | 300 ± 3.68 µM | – | – | O=S1(=O)c2ccccc2N=CN1CCOc1ccc(Cl)cc1 [Compound 11, 2‐[2‐(4‐Chlorophenoxy)ethyl]‐2H‐benzo[e][1,2,4]thiadiazine‐1,1‐dioxide] | 747 ± 188 µM | 3% | 0% | 0% | 0% | 2.57 | 2.49 | killed both parasite and host cell |
| 411 ± 27.9 µM | 783 ± 408 µM | – | – | O=[N+]([O-])c1ccc(OCCN2C=Nc3ccccc3S2(=O)=O)cc1 [Compound 12, 2‐[2‐(4‐Nitrophenoxy)ethyl]‐2H‐benzo[e][1,2,4]thiadiazine‐1,1‐dioxide] | 667 ± 58 µM | 9% | 0% | 0% | 0% | 1.62 | 0.85 | killed both parasite and host cell |
| – | – | – | – | CC[C@H]1CN2CCc3cc(OC)c(OC)cc3[C@@H]2C[C@@H]1C[C@H]1NCCc2cc(OC)c(OC)cc21 [Em, emetine, reference compound] | 0.08 ± 0.01 µM | – | – | – | – | – | – | – |
